According to patent publication EP0426314B1, “HIV related peptides” (VIRAL TECHNOLOGIES, INC., priority 1989, dated 1995):

Experiments:
[1] = system: sera from four Rhesus Monkeys given live HIV-1; experiment: ELISA of sera from Rhesus monkeys given live HIV-1 for antibodies to p17 peptides (Figure 5); format: binding; details: result in words
From the text: • Figure 1 is a schematic drawing illustrating the proposed orientation for the p17 gag protein of HIV; • Figure 2 is a chart depicting the primary amino acid sequences of HIV-1 p17 (strain HB10) and also of the p17 proteins of HIV-2 and SIV; • Figure 3 is another chart depicting the primary amino acid sequence of the peptides in p17; • Figure 4 is a graph plotting antibody titers of HIV p17 peptides in rabbits immunized with native HIV p17; and • Figure 5 is a bar graph illustrating the results of ELISA analysis of sera from 4 Rhesus monkeys exposed to live HIV antibodies to the p17 peptide fragments of this invention.
In another test, sera from four Rhesus Monkeys given live HIV-1 were also evaluated for antibodies to Peptides A, B, C, D and E and the results are shown in Figure 5. […] Sera from individuals who had been naturally exposed to the HIV virus and were seropositive for p17 were also evaluated.

[2] = system: antibodies of a rabbit immunized with native (intact) HIV p17; experiment: Antibody titers to p17 peptides in a rabbit immunized with native HIV p17 (Figure 4); format: binding; details: rabbit immunized with HPLC-purified native HIV p17, synthetic peptide analogs, result in words

“Peptide A: p17 gag HIV protein fragment, positions 1-32, formula (II); sequence only in image I00003 (GARASVLSGGELDRWEKIRLRPGGKKKYKLKH; Matrix protein p17; UniProt P04591 2-33, looked up, fragment)” was tested. Which antibody response [1] did it give?
Its antibody response is “strong antibody response in at least one of the challenged monkeys”.

Which antibody response [1] does the source give for “Peptide B: p17 gag HIV protein fragment, positions 33-50, formula (III); sequence only in image I00004 (IVWASRELERFAVNPGLL; Matrix protein p17; UniProt P04591 34-51, looked up, fragment)” here?
The antibody response was “strong antibody response in at least one of the challenged monkeys”.

Which results are given for “Peptide C: p17 gag HIV protein fragment, positions 51-84, formula (IV); sequence only in image I00005 (ETSEGCRQILGQLQPSLQTGSEELRSLYNTVATL; Matrix protein p17; UniProt P04591 52-85, looked up, fragment)”?
antibody titers [2]: highest titers; antibody response [1]: strong antibody response in at least one of the challenged monkeys
